Measured values published in patent US20190223479A1, “SUGAR-DIPEPTIDE CONJUGATES AS FLAVOR MOLECULES” (NESTEC S.A., priority 2016, published 2019).
Entries after “also recorded” stand apart in the source; their conditions may differ.

Legend:
[1] = described by T. Sonntag et al.; cited from earlier work
[2] = Sensory evaluation by 12 panelists of chicken soup spiked with the compounds; conditions: versus un-spiked reference soup; for Flavor property in chicken soup (2 g/l): compound added at 2 g/l
Procedure: Sample preparation: Chicken soups were prepared by dissolving 6 g chicken base powder (detailed recipe shown in Table 1), 1 g monosodium glutamate and 1 g of sodium chloride in 500 mL hot water. The compounds were separately added at 2 g/l and 0.25 g/l.
Sensory protocol: The sensory evaluation was carried out by 12 panelists, previously screened for their sensory abilities. The panelists assessed a maximum of 6 samples per session. They had Vittel water and crackers as mouth cleansers. In all the cases, the panelists were instructed to evaluate the samples on the following attributes: overall flavor persistency, umami, meaty, grilled/popcorn, boiled chicken, sweet, bitter, salty. The samples were coded with random 3-digit numbers according to a balanced presentation design, heated at approximately 65° C. and then presented in 40 ml brown plastic containers and under red light to minimize appearance bias (the serving was approximately 25 ml per sample).

[3] = Sensory comparison by 6 panelists (nose-clips) of soup with sugar conjugate vs equimolar glucose and lysine; conditions: 2 g/L (6.49 mmol/L) in soup base versus same molar concentrations of glucose and lysine
Procedure: A first soup was prepared by adding 2 g/L (6.49 mmol/L) 1-deoxy-D-fructosyl-N-Lysine (GluAmadori-Lys2) in the soup base as described above. A second soup was prepared by adding same corresponding molar concentrations of glucose and lysine. The solutions were then evaluated by 6 panelists following the same procedure than described above with using nose-clips.

[4] = Tomato soup seasoning compositions with added compound; conditions: 0.5 g/L or 2.5 g/L, versus reference soups without the compounds
Procedure: Tomato soups can be prepared by dissolving 6 g tomato base powder as can be obtained in the commerce in 500 mL hot water. GluAmadori-Lys1 or GluAmadori-Lys2 can then be added at a concentration of 0.5 g/L or 2.5 g/L to the soups in order to improve their taste and flavor profile. […] For example, a similar tomato soup can now be prepared which has the same saltiness as the reference tomato soup but comprising less sodium chloride.

Row | Compound | Flavor property in chicken soup (2 g/l) [2] | also measured
1 | NCCCC[C@H](N)C(=O)O [L-lysine] | – | Taste quality [1]: bitter tasting compound
2 | NCCCC[C@H](NCC1(O)OCC(O)C1O)C(=O)O (stereo partly drawn) [RibAmadori-Lys1, ((2,3,4-trihydroxytetrahydrofuran-2-yl)methyl)lysine] | baked and roasted flavors were significantly increased; also recorded: baked, roasted flavor | –
3 | N[C@@H](CCCCNCC1(O)OCC(O)C1O)C(=O)O (stereo partly drawn) [XylAmadori-Lys2, N6-((2,3,4-trihydroxytetrahydrofuran-2-yl)methyl)lysine] | enhanced meat flavor | –
4 | NCCCC[C@H](NCC1(O)OCC(O)C1O)C(=O)O (stereo partly drawn) [XylAmadori-Lys1, ((2,3,4-trihydroxytetrahydrofuran-2-yl)methyl)lysine] | baked and roasted flavors were significantly increased; also recorded: baked, roasted flavor | Flavor property in chicken soup (0.25 g/l) ([2]; compound added at 0.25 g/l): baked and roasted flavors were significantly increased
5 | N[C@@H](CCCCNCC1(O)OCC(O)C1O)C(=O)O (stereo partly drawn) [RibAmadori-Lys2, N6-((2,3,4-trihydroxytetrahydrofuran-2-yl)methyl)lysine] | enhanced roasted flavor | –
6 | 1-deoxy-D-fructosyl-N-Lysine [GluAmadori-Lys2] | enhanced saltiness, umaminess and overall flavor persistency | Sensory differences [3]: more salty and umami; Taste and flavor profile of tomato soup [4]: more pronounced umami taste as well as being perceived as more salty
